# “And” between values parts separate entries of the source, which are not always exact repeats. Identical values can stand only once. Like-named read-outs stand apart in the source and are kept apart here.
# How the values were obtained:
# PfcProRS = target: T1, PfcProRS (Plasmodium falciparum, UniProt Q8I5R7); format: binding; details: for dose-response signal (normalized), SI Fig 8: single replicates, listed as Halofuginone (1)
# T1 construct: made in house; host or cells: E. coli SoluBL-21
# HsProRS = HsProRS (Homo sapiens, UniProt P07814); assay: TR-FRET ligand displacement assay with tracer MAT379 (CoraFluor-1-Halo and anti-His6 antibody formats); format: binding; set-up: made in house; host or cells: E. coli SoluBL-21; details: for TR-FRET dose-response, normalized signal (SI Fig 11): individual replicates; for normalized TR-FRET signal (dose-response replicates): SI Fig 15, antibody format
# [1] = Log[inhibitor] (M) -5.000, listed as Halofuginone (1)
# T1 sequence (Q8I5R7 249-746): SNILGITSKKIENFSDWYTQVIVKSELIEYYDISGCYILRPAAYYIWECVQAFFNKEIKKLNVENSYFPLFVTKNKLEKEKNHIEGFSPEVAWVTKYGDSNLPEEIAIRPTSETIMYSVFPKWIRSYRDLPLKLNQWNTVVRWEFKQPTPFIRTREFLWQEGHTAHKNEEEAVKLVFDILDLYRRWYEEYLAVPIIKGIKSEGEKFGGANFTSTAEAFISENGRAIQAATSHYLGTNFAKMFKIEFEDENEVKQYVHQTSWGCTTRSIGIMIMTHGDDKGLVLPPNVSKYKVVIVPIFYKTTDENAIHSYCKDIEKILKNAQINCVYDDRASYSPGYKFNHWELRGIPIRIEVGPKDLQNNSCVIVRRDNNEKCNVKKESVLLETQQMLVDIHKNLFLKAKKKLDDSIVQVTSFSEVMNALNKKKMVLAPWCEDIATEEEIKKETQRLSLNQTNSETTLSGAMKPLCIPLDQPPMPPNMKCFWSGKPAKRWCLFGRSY
# Chain of HsProRS (P07814 996-1512): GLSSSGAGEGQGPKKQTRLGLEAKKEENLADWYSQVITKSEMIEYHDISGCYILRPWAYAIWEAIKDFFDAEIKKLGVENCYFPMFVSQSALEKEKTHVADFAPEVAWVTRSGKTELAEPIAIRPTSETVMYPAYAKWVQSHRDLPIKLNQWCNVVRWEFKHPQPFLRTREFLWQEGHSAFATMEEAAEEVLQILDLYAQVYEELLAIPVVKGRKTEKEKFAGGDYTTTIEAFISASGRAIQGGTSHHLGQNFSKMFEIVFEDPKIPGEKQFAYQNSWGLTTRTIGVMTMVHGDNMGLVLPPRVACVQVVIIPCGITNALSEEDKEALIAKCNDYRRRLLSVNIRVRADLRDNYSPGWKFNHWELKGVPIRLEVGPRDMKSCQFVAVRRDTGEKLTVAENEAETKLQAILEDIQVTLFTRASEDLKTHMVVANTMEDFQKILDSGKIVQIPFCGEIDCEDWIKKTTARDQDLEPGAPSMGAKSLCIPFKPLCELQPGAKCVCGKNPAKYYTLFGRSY
smiles,measurement,setting,value
O=C(CC1NCCCC1O)Cn1cnc2cc(Br)c(Cl)cc2c1=O (centres unmarked) [Halofuginone],"dose-response signal (normalized), SI Fig 8",PfcProRS; Log[inhibitor] (M) -7.553,9.85E-01 and 1.03E+00 and 9.40E-01
same,"dose-response signal (normalized), SI Fig 8",PfcProRS; Log[inhibitor] (M) -7.796,9.66E-01 and 1.04E+00 and 1.00E+00
same,"dose-response signal (normalized), SI Fig 8",PfcProRS; Log[inhibitor] (M) -8.097,1.01E+00 and 9.81E-01 and 1.00E+00
same,"dose-response signal (normalized), SI Fig 8",PfcProRS; Log[inhibitor] (M) -8.398,9.48E-01 and 1.10E+00 and 1.01E+00
same,"dose-response signal (normalized), SI Fig 8",PfcProRS; Log[inhibitor] (M) -8.585,1.08E+00 and 9.61E-01 and 9.66E-01
same,PfcProRS -- best Kd,"PfcProRS; SI Fig 16a, values on -log scale",9.298
same,normalized TR-FRET signal (Fig 2j),"HsProRS; Halofuginone series, Log[inhibitor] (M) -5.301",4.67E-01 and 4.34E-01 and 5.01E-01
same,normalized TR-FRET signal (Fig 2j),"HsProRS; Halofuginone series, Log[inhibitor] (M) -5.602",6.44E-01 and 5.92E-01 and 5.65E-01
same,normalized TR-FRET signal (Fig 2j),"HsProRS; Halofuginone series, Log[inhibitor] (M) -7.107",1.11E+00 and 9.45E-01 and 9.98E-01
same,Kd,"HsProRS; HsProRS - best Kd, SI Fig 16a, values on -log scale",225 pM
same,"TR-FRET dose-response, normalized signal (SI Fig 11)",HsProRS; [1],1.22E-01 and 1.04E-01 and 9.99E-02
same,"normalized TR-FRET ligand displacement signal, dose-response replicates (SI Fig 6)",HsProRS; [1],8.67E-01 and 9.21E-01 and 8.89E-01
same,"normalized TR-FRET ligand displacement signal, dose-response replicates (SI Fig 6)","HsProRS; Log[inhibitor] (M) -5.258, listed as Halofuginone (1)",9.18E-01 and 9.29E-01 and 9.59E-01
same,"TR-FRET dose-response, normalized signal (SI Fig 11)","HsProRS; Log[inhibitor] (M) -5.301, listed as Halofuginone (1)",2.23E-01 and 2.19E-01 and 2.35E-01
same,"normalized TR-FRET ligand displacement signal, dose-response replicates (SI Fig 6)","HsProRS; Log[inhibitor] (M) -5.517, listed as Halofuginone (1)",9.53E-01 and 1.02E+00 (2×)
same,"TR-FRET dose-response, normalized signal (SI Fig 11)","HsProRS; Log[inhibitor] (M) -5.602, listed as Halofuginone (1)",3.79E-01 and 3.48E-01 and 2.87E-01
same,"normalized TR-FRET ligand displacement signal, dose-response replicates (SI Fig 6)","HsProRS; Log[inhibitor] (M) -5.775, listed as Halofuginone (1)",1.06E+00 and 1.00E+00 and 1.07E+00
same,normalized TR-FRET signal (Fig 2j),HsProRS; Log[inhibitor] (M) -5.903,7.44E-01 and 8.56E-01 and 7.84E-01
same,"TR-FRET dose-response, normalized signal (SI Fig 11)","HsProRS; Log[inhibitor] (M) -5.903, listed as Halofuginone (1)",5.30E-01 and 5.36E-01 and 5.41E-01
same,"normalized TR-FRET ligand displacement signal, dose-response replicates (SI Fig 6)","HsProRS; Log[inhibitor] (M) -6.018, listed as Halofuginone (1)",1.05E+00 and 1.10E+00 and 1.02E+00
same,normalized TR-FRET signal (Fig 2j),HsProRS; Log[inhibitor] (M) -6.204,8.25E-01 and 9.54E-01 and 7.75E-01
same,"TR-FRET dose-response, normalized signal (SI Fig 11)","HsProRS; Log[inhibitor] (M) -6.204, listed as Halofuginone (1)",7.34E-01 and 7.40E-01 and 6.73E-01
same,"normalized TR-FRET ligand displacement signal, dose-response replicates (SI Fig 6)","HsProRS; Log[inhibitor] (M) -6.281, listed as Halofuginone (1)",1.08E+00 and 1.03E+00 and 1.07E+00
same,normalized TR-FRET signal (Fig 2j),HsProRS; Log[inhibitor] (M) -6.505,1.04E+00 and 9.85E-01 and 1.03E+00
same,"TR-FRET dose-response, normalized signal (SI Fig 11)",HsProRS; Log[inhibitor] (M) -6.505,7.32E-01
same,"TR-FRET dose-response, normalized signal (SI Fig 11)","HsProRS; Log[inhibitor] (M) -6.505, listed as Halofuginone (1)",7.86E-01 and 7.92E-01
same,"normalized TR-FRET ligand displacement signal, dose-response replicates (SI Fig 6)","HsProRS; Log[inhibitor] (M) -6.535, listed as Halofuginone (1)",1.04E+00 and 1.03E+00 and 9.64E-01
same,"normalized TR-FRET ligand displacement signal, dose-response replicates (SI Fig 6)","HsProRS; Log[inhibitor] (M) -6.796, listed as Halofuginone (1)",1.04E+00 and 1.03E+00 (2×)
same,normalized TR-FRET signal (Fig 2j),HsProRS; Log[inhibitor] (M) -6.806,9.63E-01 and 9.86E-01 and 9.32E-01
same,"TR-FRET dose-response, normalized signal (SI Fig 11)","HsProRS; Log[inhibitor] (M) -6.806, listed as Halofuginone (1)",8.94E-01 and 8.80E-01 and 8.52E-01
same,"normalized TR-FRET ligand displacement signal, dose-response replicates (SI Fig 6)","HsProRS; Log[inhibitor] (M) -7.056, listed as Halofuginone (1)",1.05E+00 and 1.11E+00 and 1.07E+00
same,"TR-FRET dose-response, normalized signal (SI Fig 11)","HsProRS; Log[inhibitor] (M) -7.107, listed as Halofuginone (1)",9.88E-01 and 8.65E-01 and 9.16E-01
same,"normalized TR-FRET ligand displacement signal, dose-response replicates (SI Fig 6)","HsProRS; Log[inhibitor] (M) -7.319, listed as Halofuginone (1)",1.04E+00 (2×) and 1.02E+00
same,normalized TR-FRET signal (Fig 2j),HsProRS; Log[inhibitor] (M) -7.408,1.05E+00 and 9.28E-01 and 8.93E-01
same,"TR-FRET dose-response, normalized signal (SI Fig 11)","HsProRS; Log[inhibitor] (M) -7.408, listed as Halofuginone (1)",9.10E-01 and 9.40E-01 and 9.15E-01
same,"normalized TR-FRET ligand displacement signal, dose-response replicates (SI Fig 6)",HsProRS; Log[inhibitor] (M) -7.553,1.10E+00
same,"normalized TR-FRET ligand displacement signal, dose-response replicates (SI Fig 6)","HsProRS; Log[inhibitor] (M) -7.553, listed as Halofuginone (1)",1.16E+00
same,normalized TR-FRET signal (Fig 2j),HsProRS; Log[inhibitor] (M) -7.709,9.59E-01 and 9.28E-01 and 9.82E-01
same,"TR-FRET dose-response, normalized signal (SI Fig 11)","HsProRS; Log[inhibitor] (M) -7.709, listed as Halofuginone (1)",9.34E-01 (2×) and 9.38E-01
same,"normalized TR-FRET ligand displacement signal, dose-response replicates (SI Fig 6)","HsProRS; Log[inhibitor] (M) -7.796, listed as Halofuginone (1)",1.10E+00 and 1.04E+00 and 1.03E+00
same,normalized TR-FRET signal (Fig 2j),HsProRS; Log[inhibitor] (M) -8.010,9.03E-01 and 1.00E+00 and 9.95E-01
same,"TR-FRET dose-response, normalized signal (SI Fig 11)","HsProRS; Log[inhibitor] (M) -8.010, listed as Halofuginone (1)",9.18E-01 and 9.71E-01 and 9.55E-01
same,"normalized TR-FRET ligand displacement signal, dose-response replicates (SI Fig 6)","HsProRS; Log[inhibitor] (M) -8.097, listed as Halofuginone (1)",1.01E+00 and 1.03E+00 and 1.08E+00
same,normalized TR-FRET signal (Fig 2j),HsProRS; Log[inhibitor] (M) -8.311,9.63E-01 and 1.06E+00 and 1.04E+00
same,"TR-FRET dose-response, normalized signal (SI Fig 11)","HsProRS; Log[inhibitor] (M) -8.311, listed as Halofuginone (1)",9.28E-01 and 9.37E-01 and 9.39E-01
same,"normalized TR-FRET ligand displacement signal, dose-response replicates (SI Fig 6)","HsProRS; Log[inhibitor] (M) -8.398, listed as Halofuginone (1)",1.06E+00 and 1.03E+00 and 1.05E+00
same,"normalized TR-FRET ligand displacement signal, dose-response replicates (SI Fig 6)","HsProRS; Log[inhibitor] (M) -8.585, listed as Halofuginone (1)",1.04E+00 and 1.03E+00 and 1.02E+00
same,normalized TR-FRET signal (Fig 2j),HsProRS; Log[inhibitor] (M) -8.612,1.10E+00 and 1.01E+00 and 9.98E-01
same,"TR-FRET dose-response, normalized signal (SI Fig 11)","HsProRS; Log[inhibitor] (M) -8.612, listed as Halofuginone (1)",9.43E-01 and 9.93E-01 and 8.80E-01
same,normalized TR-FRET signal (Fig 2j),HsProRS; Log[inhibitor] (M) -8.913,1.04E+00 and 1.15E+00 and 9.02E-01
same,"TR-FRET dose-response, normalized signal (SI Fig 11)","HsProRS; Log[inhibitor] (M) -8.913, listed as Halofuginone (1)",9.29E-01 and 9.23E-01 and 1.01E+00
same,normalized TR-FRET signal (Fig 2j),HsProRS; Log[inhibitor] (M) -9.214,9.13E-01 and 9.87E-01 and 1.00E+00
same,"TR-FRET dose-response, normalized signal (SI Fig 11)","HsProRS; Log[inhibitor] (M) -9.214, listed as Halofuginone (1)",1.03E+00 and 9.64E-01 and 9.56E-01
same,normalized TR-FRET signal (dose-response replicates),"HsProRS; Log[inhibitor] (M) -7, listed as Halofuginone (1)",-5.10E-02 and 1.45E-01 and 6.11E-02 and -8.68E-02 and 8.71E-02 and -1.63E-01
same,normalized TR-FRET signal (dose-response replicates),"HsProRS; Log[inhibitor] (M) -7.301, listed as Halofuginone (1)",-1.11E-01 and 1.65E-02 and 1.81E-01 and 1.03E-01 and -9.48E-02 and 1.44E-01
same,normalized TR-FRET signal (dose-response replicates),"HsProRS; Log[inhibitor] (M) -7.602, listed as Halofuginone (1)",-2.32E-02 and 2.15E-01 and 1.05E-01 and 1.32E-01 and 1.04E-01 and 2.19E-02
same,normalized TR-FRET signal (dose-response replicates),"HsProRS; Log[inhibitor] (M) -7.902, listed as Halofuginone (1)",1.55E-01 and 5.85E-02 and 2.37E-01 and 1.20E-01 and -3.85E-02 and 1.09E-01
same,normalized TR-FRET signal (dose-response replicates),"HsProRS; Log[inhibitor] (M) -8.206, listed as Halofuginone (1)",1.08E-02 and 1.11E-01 and 2.70E-01 and 1.81E-01 and 6.79E-02 and 2.75E-01
same,normalized TR-FRET signal (dose-response replicates),"HsProRS; Log[inhibitor] (M) -8.507, listed as Halofuginone (1)",1.46E-01 and 1.20E-01 and 1.73E-01 and 3.30E-01 and 1.53E-01 and 2.25E-01
same,normalized TR-FRET signal (dose-response replicates),"HsProRS; Log[inhibitor] (M) -8.797, listed as Halofuginone (1)",4.78E-02 and 3.34E-01 and 2.48E-01 and 1.28E-01 and 3.36E-01 and 3.00E-01
same,normalized TR-FRET signal (dose-response replicates),"HsProRS; Log[inhibitor] (M) -9.098, listed as Halofuginone (1)",4.47E-01 and 3.74E-01 and 3.80E-01 and 4.11E-01 and 4.02E-01 and 4.65E-01
same,normalized TR-FRET signal (dose-response replicates),"HsProRS; Log[inhibitor] (M) -9.407, listed as Halofuginone (1)",2.38E-01 and 7.71E-01 and 7.58E-01 and 8.49E-01 and 6.67E-01 and 6.46E-01
same,normalized TR-FRET signal (dose-response replicates),"HsProRS; Log[inhibitor] (M) -9.708, listed as Halofuginone (1)",8.31E-01 and 9.16E-01 and 9.30E-01 and 9.90E-01 and 7.66E-01 and 7.98E-01
same,normalized TR-FRET signal (dose-response replicates),"HsProRS; Log[inhibitor] (M) -10.018, listed as Halofuginone (1)",7.34E-01 and 7.78E-01 and 9.27E-01 and 9.57E-01 and 7.69E-01 and 9.42E-01
same,normalized TR-FRET signal (dose-response replicates),"HsProRS; Log[inhibitor] (M) -10.319, listed as Halofuginone (1)",1.03E+00 and 8.60E-01 and 1.21E+00 and 9.50E-01 and 1.14E+00 and 9.79E-01
same,normalized TR-FRET signal (dose-response replicates),"HsProRS; Log[inhibitor] (M) -10.62, listed as Halofuginone (1)",1.02E+00 and 8.83E-01 and 9.73E-01 and 1.04E+00 and 9.53E-01 and 9.56E-01
same,normalized TR-FRET signal (dose-response replicates),"HsProRS; Log[inhibitor] (M) -10.921, listed as Halofuginone (1)",1.01E+00 and 1.12E+00 and 1.14E+00 and 9.45E-01 and 8.05E-01 and 9.06E-01
same,normalized TR-FRET signal (dose-response replicates),"HsProRS; Log[inhibitor] (M) -11.098, listed as Halofuginone (1)",9.11E-01 and 1.15E+00 and 1.13E+00 and 1.03E+00 and 9.58E-01 and 9.14E-01
